Where two headings read alike, the source gives them in different places.
Tests used:
[1] = target: T1, HiBiT-FZD5 (Homo sapiens, UniProt Q13467); test: NanoBiT cell surface expression assay, HiBiT-FZD5; assay type: cell-based; settings: 10 μM, overnight exposure
T1 construct: expressed in transfected cells; host or cells: HEK293A cells
Experimental: Subsequently, 10 μl of either compound 11 or 26 (DD436001) was added at a final concentration of 10 μM. DMSO was added separately as a control. One day after compound or DMSO addition, cells were washed once with HBSS, and 90 μl of HBSS was added to the wells. To measure cell surface expression, a 1:20 dilution of furimazine live cell substrate and 1:20 LgBiT mix (final dilution = 1:200) were prepared in HBSS and 10 μl was added. The plate was incubated for 30 min to allow for HiBiT–LgBiT complementation, and then luminescence was measured on a TECAN Spark multimode microplate reader between 460 and 500 nm (integration time: 200 ms).
Figure S4. BRET time-course of compound 11 at the FZD5-DEP-Clamp in agonist mode and HiBiT-FZD5/6 surface expression upon compound exposure. (A) Shown is the BRET time-course recorded upon addition of 30 µM compound 11 or vehicle (DMSO). Experiments were performed in HEK293A cells stably expressing the FZD5-DEP-Clamp sensor. […] The timepoint of ligand addition is indicated by a black arrow. (B, C) Impact of compound 11 on FZD cell surface expression. The cell surface pool of transiently-transfected HiBiT-FZD5 (B) and HiBiT-FZD6 (C) was assessed by addition of recombinant LgBiT in combination with detection of NanoBiT luminescence. […]

[2] = system: human FZD5; test: TOPFlash reporter gene assay in ΔFZD1–10 HEK293T cells transfected with HiBiT-FZD5; assay type: cell-based; settings: for IC50: Homo sapiens, HEK-293T, 300 ng/ml WNT-3A, HiBiT-FZD5
[3] = target: T2, muscarinic acetylcholine M1 receptor (Homo sapiens, UniProt P11229); test: BRET-based Venus-mGsq recruitment assay at M1R-Nluc; assay type: cell-based
T2 construct: HA (N); expressed in transfected cells; host or cells: HEK293A cells
T2 sequence (P11229 2-460): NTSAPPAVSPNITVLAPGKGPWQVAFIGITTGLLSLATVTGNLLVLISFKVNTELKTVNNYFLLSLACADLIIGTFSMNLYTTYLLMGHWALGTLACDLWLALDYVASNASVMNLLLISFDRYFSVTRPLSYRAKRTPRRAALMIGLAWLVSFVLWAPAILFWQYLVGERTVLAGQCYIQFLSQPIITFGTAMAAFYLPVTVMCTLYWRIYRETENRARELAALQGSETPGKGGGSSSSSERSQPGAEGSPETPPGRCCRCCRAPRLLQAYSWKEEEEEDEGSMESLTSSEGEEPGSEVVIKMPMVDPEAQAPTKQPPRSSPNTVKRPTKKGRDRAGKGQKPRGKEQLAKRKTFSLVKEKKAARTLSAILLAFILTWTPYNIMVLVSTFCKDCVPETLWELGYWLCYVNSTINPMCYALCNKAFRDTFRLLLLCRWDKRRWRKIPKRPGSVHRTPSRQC
Experimental: The transfected cells were seeded at a density of 40,000 cells per well into a white opaque 96-well plate. […] Following a 10 min incubation period in the dark, the measurement was started on a TECAN Spark multimode microplate reader, prewarmed to 37 °C. After the three baseline measurements, the ligands diluted in HBSS were added (10 μl) and the measurement continued for a further 15 min. Nluc bioluminescence was detected between 460 and 500 nm. The emission of Venus was detected between 520 and 560 nm.
Figure S3. […] Experiments were performed in HEK293 cells.

[4] = system: FZD5–DEP–Clamp sensor; test: FZD5–DEP–Clamp BRET sensor in stably expressing HEK293A cells; assay type: cell-based, human
Experimental: To generate the stable FZD5–DEP–Clamp cell line, HEK293A cells were seeded at a density of 500,000 cells/well in a 6-well plate. On the next day, the adherent cells were transfected with 2 μg of FZD5–DEP–Clamp (TK) plasmid using PEI as the transfection reagent. After 2 days of transfection, cells were detached and transferred to a 75 cm^2 flask. Stably transfected cells were selected using complete medium (DMEM + 10% fetal calf serum + 1% penicillin–streptomycin) supplemented with 2000 μg/ml G-418 sulfate (Gibco; catalog no.: 10131027) for 3 weeks. After obtaining stable growth, cell culture of the stable cell line was continued with 500 μg/ml G-418.
For kinetic experiments with the FZD5–DEP–Clamp sensor, BRET values were first baseline-corrected for every well separately by subtracting the average of the first three reads prior ligand addition. Afterward, the average values for vehicle-containing wells were subtracted for every timepoint to get access to actual ligand-induced changes in BRET ratio (ΔBRET values).
Figure S4. […] (A) Shown is the BRET time-course recorded upon addition of 30 µM compound 11 or vehicle (DMSO). […] The cell surface pool of transiently-transfected HiBiT-FZD5 (B) and HiBiT-FZD6 (C) was assessed by addition of recombinant LgBiT in combination with detection of NanoBiT luminescence. […]

[5] = system: LGR5 gene expression in primary human hepatocyte (PHH) spheroids; test: WNT-3A-induced LGR5 gene expression in primary human hepatocyte spheroids; assay type: cell-based; settings: 10 μM compound, 48 h, coaddition with WNT-3A
Experimental: Cryopreserved adult PHHs were purchased from BioIVT and cultured as 3D spheroids as previously described ([35]). Briefly, PHHs were seeded in 96-well ultra-low attachment plates (Corning) at a density of 1500 cells/well in William’s E medium (Gibco) supplemented with insulin, transferrin, and selenium (Life Technologies), 100 nM dexamethasone (Sigma), and 10% fetal bovine serum (Cytiva). PHHs were treated from the start of the culture with vehicle control (dimethyl sulfoxide [DMSO]), recombinant WNT-3A, and 10 μM compound 11 for 48 h, as indicated. […]
RNA from 24 hepatocyte spheroids per condition was isolated using Qiazol lysis reagent (QIAGEN). For expression profiling of target genes by quantitative PCR, complementary DNA synthesis was carried out using SuperScript III reverse transcriptase (Invitrogen), and expression was evaluated using Taqman probes (Table S6) according to the supplier’s instructions in a 7500 Fast Real-Time PCR system (Applied Biosystems). Gene expression was quantified using the ΔΔCt method (normalized to the average of the vehicle control from all three experiments).
For the WNT target gene analysis in PHH-derived spheroids, ΔΔCt values were calculated by normalization to the averaged vehicle control from three independent experiments.

T1 sequence (Q13467 27-585): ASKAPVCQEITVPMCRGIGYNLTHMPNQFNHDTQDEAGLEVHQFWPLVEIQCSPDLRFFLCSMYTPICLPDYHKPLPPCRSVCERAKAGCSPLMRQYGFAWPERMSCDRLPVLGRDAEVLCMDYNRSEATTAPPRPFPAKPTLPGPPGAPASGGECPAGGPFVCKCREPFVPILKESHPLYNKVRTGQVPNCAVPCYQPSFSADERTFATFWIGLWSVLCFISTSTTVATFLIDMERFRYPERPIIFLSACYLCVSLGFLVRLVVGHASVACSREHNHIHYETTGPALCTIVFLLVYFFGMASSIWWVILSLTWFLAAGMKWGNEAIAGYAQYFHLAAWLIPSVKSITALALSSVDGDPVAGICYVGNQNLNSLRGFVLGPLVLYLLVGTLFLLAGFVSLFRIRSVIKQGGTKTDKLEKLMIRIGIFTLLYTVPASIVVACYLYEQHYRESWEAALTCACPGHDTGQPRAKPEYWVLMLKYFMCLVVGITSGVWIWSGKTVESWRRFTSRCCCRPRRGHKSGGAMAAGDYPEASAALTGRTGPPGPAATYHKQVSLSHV

CC(=O)Nc1cccc(C(=O)NC2CCC(N(Cc3cccc(-c4ccncc4)c3)C(=O)c3sc4ccccc4c3Cl)CC2)c1 (stereo not shown) [compound 11, N-((1r,4r)-4-(3-Acetamidobenzamido)cyclohexyl)-3-chloro-N-(3-(pyridin-4-yl)benzyl)benzo[b]thiophene-2-carboxamide]
Effect on surface levels of HiBiT-FZD5 [1]: had no effect
IC50 ([2]; equal to the pIC50, read-out: IC50, inhibition of WNT-3A-induced TOPFlash response): 1200 nM
IC50 ([2]; read-out: pIC50, inhibition of WNT-3A-induced TOPFlash response (converted)): 1200 nM
Effect on WNT surrogate-induced TOPFlash signal ([2]; WNT surrogate 250 pM, coaddition of compound): could also be blocked
TOPFlash response to compound alone ([2]; absence of added WNT-3A): not inducing any effect
Effect on carbachol-induced M1-mediated mini-Gsq response ([3]; 10 µM compound +/- carbachol): nor affected the concentration-dependent M1-mediated mini-Gsq response
mini-Gsq recruitment, compound alone (agonist mode) ([3]; increasing concentrations of compound): neither elicited a mini-Gsq recruitment on its own
Effect on WNT-induced FZD5–DEP–Clamp response ([4]; 500 ng/ml high-purity WNT-3A with 30 μM compound): able to interfere with the WNT-induced effects
BRET response of FZD5–DEP–Clamp, compound alone ([4]; 30 µM compound, agonist mode): did not elicit a robust change in BRET response
Effect on WNT-3A-induced LGR5 mRNA expression [5]: returning mRNA expression almost back to vehicle levels
